Laboratory results from patent publication US12552767B2, “3-heteroaryl pyrrolidine and piperidine orexin receptor agonists” (Merck Sharp & Dohme LLC, priority 2020, dated 2026).

Target: T1, human OX2R (Homo sapiens, UniProt O43614)
T1 construct: expressed in transfected cells; host or cells: CHO (Chinese hamster ovary) cells, grown under G418 selection
T1 sequence (O43614 1-444): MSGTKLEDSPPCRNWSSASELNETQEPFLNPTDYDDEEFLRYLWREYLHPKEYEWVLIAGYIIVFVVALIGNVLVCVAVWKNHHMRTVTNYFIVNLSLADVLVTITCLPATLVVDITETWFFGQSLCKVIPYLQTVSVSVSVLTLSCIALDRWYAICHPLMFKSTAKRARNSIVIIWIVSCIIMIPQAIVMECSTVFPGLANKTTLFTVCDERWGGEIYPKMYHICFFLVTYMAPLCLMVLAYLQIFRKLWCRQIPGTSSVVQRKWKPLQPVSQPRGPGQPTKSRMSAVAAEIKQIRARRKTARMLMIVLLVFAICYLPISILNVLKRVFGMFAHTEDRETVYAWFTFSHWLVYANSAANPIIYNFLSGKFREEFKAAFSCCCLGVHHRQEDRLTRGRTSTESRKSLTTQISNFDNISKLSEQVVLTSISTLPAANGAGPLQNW
Experiment: IP-One (IPOne) orexin receptor agonist assay in CHO cells expressing human OX2R
Type: cell-based
Settings: for EC50: CHO cells expressing human OX2R, IP-One IP-1 detection, 2 hours incubation, four parameter logistic fit, read-out: OX2R Potency, EC50; for % of reference agonist maximal effect: human OX2R, percentage of sample raw value/mean max effect (reference compound at 1 uM with 100% activity)
In short: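 CHO cells stably expressing human OX2R were stimulated with compound (10-point ½-log dilutions) for 2 h at 37 °C. IP-1 accumulation was read by HTRF (IP-One, 665/620 nm). EC50 from a four-parameter fit; % effect relative to 1 μM reference agonist control.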

| Structure (SMILES) | EC50 [µM] | % of reference agonist maximal effect [%] |
| --- | --- | --- |
| Cc1cnc(COC(=O)N2CCC[C@H](c3cc[nH]n3)[C@@H]2CO[C@H]2CC[C@@H](c3ccccc3)CC2)o1 (relative stereo) [Example 109, (5-methyloxazol-2-yl)methyl (CIS)-2-((((CIS)-4-phenylcyclohexyl)oxy)methyl)-3-(1H-pyrazol-3-yl)piperidine-1-carboxylate] | 5.56 | 78.6 |
| CC(F)(F)COC(=O)N1CCC[C@H](c2cc[nH]n2)[C@@H]1CO[C@H]1CC[C@@H](c2ccccc2)CC1 (relative stereo) [Example 110, 2,2-difluoropropyl (CIS)-2-((((CIS)-4-phenylcyclohexyl)oxy)methyl)-3-(1H-pyrazol-3-yl)piperidine-1-carboxylate] | 6.23 | 58.5 |
| O=C(OCCF)N1CCC[C@H](c2cc[nH]n2)[C@@H]1CO[C@H]1CC[C@@H](c2ccccc2)CC1 (relative stereo) [Example 111, 2-fluoroethyl (CIS)-2-((((CIS)-4-phenylcyclohexyl)oxy)methyl)-3-(1H-pyrazol-3-yl)piperidine-1-carboxylate] | 6.29 | 78.4 |
| O=C(OC1CCC1)N1CCC[C@H](c2cc[nH]n2)[C@@H]1CO[C@H]1CC[C@@H](c2ccccc2)CC1 (relative stereo) [Example 112, cyclobutyl (CIS)-2-((((CIS)-4-phenylcyclohexyl)oxy)methyl)-3-(1H-pyrazol-3-yl)piperidine-1-carboxylate] | 6.36 | 61.6 |
| O=C(OC(CF)CF)N1CCC[C@H](c2cc[nH]n2)[C@@H]1CO[C@H]1CC[C@@H](c2ccccc2)CC1 (relative stereo) [Example 113, 1,3-difluoropropan-2-yl (CIS)-2-((((CIS)-4-phenylcyclohexyl)oxy)methyl)-3-(1H-pyrazol-3-yl)piperidine-1-carboxylate] | 6.67 | 57.4 |
| COC(=O)CCOC(=O)N1CCC[C@H](c2cc[nH]n2)[C@@H]1CO[C@H]1CC[C@@H](c2ccccc2)CC1 (relative stereo) [Example 114, 3-methoxy-3-oxopropyl (CIS)-2-((((CIS)-4-phenylcyclohexyl)oxy)methyl)-3-(1H-pyrazol-3-yl)piperidine-1-carboxylate] | 6.78 | 80.5 |
| O=C(OC1CCCC1)N1CCC[C@H](c2cc[nH]n2)[C@@H]1CO[C@H]1CC[C@@H](c2ccccc2)CC1 (relative stereo) [Example 117, cyclopentyl (CIS)-2-((((CIS)-4-phenylcyclohexyl)oxy)methyl)-3-(1H-pyrazol-3-yl)piperidine-1-carboxylate] | 8 | 47.3 |
| COCCCOC(=O)N1CCC[C@H](c2cc[nH]n2)[C@@H]1CO[C@H]1CC[C@@H](c2ccccc2)CC1 (relative stereo) [Example 118, 3-methoxypropyl (CIS)-2-((((CIS)-4-phenylcyclohexyl)oxy)methyl)-3-(1H-pyrazol-3-yl)piperidine-1-carboxylate] | 8.96 | 47.9 |
| C=CCNC(=O)N1CCC[C@H](c2cc[nH]n2)[C@@H]1CO[C@H]1CC[C@@H](C(C)C)CC1 (relative stereo) [Example 120, (CIS)-N-allyl-2-((((CIS)-4-isopropylcyclohexyl)oxy)methyl)-3-(1H-pyrazol-3-yl)piperidine-1-carboxamide] | 1.14 | 97.8 |
| CC(C)NC(=O)N1CCC[C@H](c2cc[nH]n2)[C@@H]1CO[C@H]1CC[C@@H](C(C)C)CC1 (relative stereo) [Example 121, (CIS)-N-isopropyl-2-((((CIS)-4-isopropylcyclohexyl)oxy)methyl)-3-(1H-pyrazol-3-yl)piperidine-1-carboxamide] | 1.54 | 96.1 |
| CC(C)[C@H]1CC[C@@H](OC[C@H]2[C@@H](c3cc[nH]n3)CCCN2C(=O)NCc2ccccc2)CC1 (relative stereo) [Example 122, (CIS)-N-benzyl-2-((((CIS)-4-isopropylcyclohexyl)oxy)methyl)-3-(1H-pyrazol-3-yl)piperidine-1-carboxamide] | 2.42 | 93.6 |
| CC(C)[C@H]1CC[C@@H](OC[C@H]2[C@@H](c3cc[nH]n3)CCCN2C(=O)NCC2CCCCC2)CC1 (relative stereo) [Example 123, (CIS)-N-(cyclohexylmethyl)-2-((((CIS)-4-isopropylcyclohexyl)oxy)methyl)-3-(1H-pyrazol-3-yl)piperidine-1-carboxamide] | 6.73 | 87.9 |
| CC(C)[C@H]1CC[C@@H](OC[C@H]2[C@@H](c3cc[nH]n3)CCCN2C(=O)NC2CCCCC2)CC1 (relative stereo) [Example 124, (CIS)-N-cyclohexyl-2-((((CIS)-4-isopropylcyclohexyl)oxy)methyl)-3-(1H-pyrazol-3-yl)piperidine-1-carboxamide] | 8.2 | 92.3 |
| O=C(NCC1CCC1)N1CCC[C@H](c2cc[nH]n2)[C@@H]1CO[C@H]1CC[C@@H](c2ccccc2)CC1 (relative stereo) [Example 125, (CIS)-N-(cyclobutylmethyl)-2-((((CIS)-4-phenylcyclohexyl)oxy)methyl)-3-(1H-pyrazol-3-yl)piperidine-1-carboxamide] | 0.0224 | 99.1 |
| COCC(C)NC(=O)N1CCC[C@H](c2cc[nH]n2)[C@@H]1CO[C@H]1CC[C@@H](c2ccccc2)CC1 (relative stereo) [Example 126, (CIS)-N-(1-methoxypropan-2-yl)-2-((((CIS)-4-phenylcyclohexyl)oxy)methyl)-3-(1H-pyrazol-3-yl)piperidine-1-carboxamide] | 0.944 | 100 |
| O=C(NC1COC1)N1CCC[C@H](c2cc[nH]n2)[C@@H]1CO[C@H]1CC[C@@H](c2ccccc2)CC1 (relative stereo) [Example 127, (CIS)-N-(oxetan-3-yl)-2-((((CIS)-4-phenylcyclohexyl)oxy)methyl)-3-(1H-pyrazol-3-yl)piperidine-1-carboxamide] | 4.38 | 72 |
| CCNC(=O)N1CCC[C@H](c2ccn[nH]2)[C@@H]1CO[C@H]1CC[C@@H](c2ccccc2)CC1 (single isomer, unassigned) [Example 1, (CIS)-N-ethyl-2-((((CIS)-4-phenylcyclohexyl)oxy)methyl)-3-(1H-pyrazol-5-yl)piperidine-1-carboxamide] | 0.0673 | 102.6 |
| CCNC(=O)N1CCC[C@H](c2ccn[nH]2)[C@@H]1CO[C@H]1CC[C@@H](C(C)C)CC1 (single isomer, unassigned) [Example 4] | 0.276 | 100.6 |
| CCNC(=O)N1CCC[C@@H](c2ccn[nH]2)[C@H]1CO[C@H]1CC[C@@H](C(C)C)CC1 (single isomer, unassigned) [Example 5] | 3.19 | 99.6 |
| CCNC(=O)N1CCC[C@H](c2n[nH]cc2C)[C@@H]1CO[C@H]1CC[C@@H](c2cccc(F)c2)CC1 (single isomer, unassigned) [Example 11] | 0.0023 | 100.1 |
| CCNC(=O)N1CCC[C@@H](c2n[nH]cc2C)[C@H]1CO[C@H]1CC[C@@H](c2cccc(F)c2)CC1 (single isomer, unassigned) [Example 12] | 0.414 | 100.0 |
| CCNC(=O)N1CCC[C@H](c2cc[nH]n2)[C@@H]1CO[C@H]1CC[C@@H](c2ccccc2)CC1 (single isomer, unassigned) [Example 18, (CIS)-N-ethyl-2-((((CIS)-4-phenylcyclohexyl)oxy)methyl)-3-(1H-pyrazol-3-yl)piperidine-1-carboxamide] | 0.0547 | 98.8 |
| O=C(C1CC1)N1CCC[C@H](c2cc[nH]n2)[C@@H]1CO[C@H]1CC[C@@H](c2ccccc2)CC1 (single isomer, unassigned) [Example 20, cyclopropyl((CIS)-2-((((CIS)-4-phenylcyclohexyl)oxy)methyl)-3-(1H-pyrazol-3-yl)piperidin-1-yl)methanone] | 0.682 | 97.4 |
| CCc1c[nH]nc1[C@H]1CCCN(C(=O)OC)[C@H]1CO[C@H]1CC[C@@H](c2ccccc2)CC1 (single isomer, unassigned) [Example 43] | 0.163 | 100.4 |
| COC(=O)N1CCC[C@H](c2n[nH]cc2Cl)[C@@H]1CO[C@H]1CC[C@@H](c2ccccc2)CC1 (single isomer, unassigned) [Example 45] | 0.0794 | 100.2 |
| COC(=O)N1CCC[C@@H](c2n[nH]cc2Cl)[C@H]1CO[C@H]1CC[C@@H](c2ccccc2)CC1 (single isomer, unassigned) [Example 46] | > 10 | 0 |
| COC(=O)N1CCC[C@H](c2n[nH]cc2C(C)C)[C@@H]1CO[C@H]1CC[C@@H](c2ccccc2)CC1 (single isomer, unassigned) [Example 49] | 0.795 | 99.0 |
